In patent US8536160B2, “Azaheterocyclyl derivatives of androstanes and androstenes as medicaments for cardiovascular disorders” (priority 2006, dated 2013):
pIC50: −log10 of the molar value. Counter-ions that a name gives are not always drawn. Like-named read-outs stand apart in the source and are kept apart here.

Columns and labels:
[1] = tested on: fresh rat hepatocytes; assay: Metabolism in fresh rat hepatocytes; settings: for % of compound metabolized after 60 minutes: test item nominal concentration 45 μM, 2590000-3084000 hepatocytes/ml
[2] = biological target: Dog Kidney Na+, K+-ATPase (Canis lupus familiaris, UniProt P50997); assay: Inhibition of the enzymatic activity of purified Na+,K+-ATPase (hydrolysis of 32P-ATP); type: biochemical
[3] = tested on: anesthetized guinea-pig; assay: Inotropic effect and lethal dose, slow intravenous infusion in anesthetized guinea-pig; type: in vivo; parameters: Maximum dose infused: unit not given here; settings: for Emax / ED80 / ED (max): Cavia porcellus, iv, 1.5 h; for Emax / ED80 / ED (max) / Dead/treated / Maximum dose infused: slow i.v. infusion over 90 minutes; for Emax / ED80 / ED (max) / % decrease from Emax after 20 min from the end of the infusion / Dead/treated / Lethal dose/ED80 (safety ratio): anesthetized guinea-pig; for Emax: maximum increase in contractile force, read-out: Emax % increase in +dP/dTmax; for ED80: read-out: ED80 (inotropic potency, dose increasing +dP/dTmax by 80%); for ED (max): read-out: EDmax (dose inducing maximum positive inotropic effect); for % decrease from Emax after 20 min from the end of the infusion: duration of the inotropic effect; for Maximum dose infused: maximum dose infused in the survived animals; for Lethal dose/ED80 (safety ratio): calculated for the died animals
[4] = tested on: hypertensive ouabain-sensitive rats (OS rats); assay: Systolic blood pressure fall in hypertensive ouabain-sensitive rats (OS rats); type: in vivo, rat; settings: 10 μg/kg/day by mouth for four weeks
Method: The ability of these compounds to lower blood pressure was tested by using an animal model with induced hypertension, in particular, rats made hypertensive by chronic infusion of ouabain, according to Ferrari P., et al. J. Pharm. Exp. Ther. 1998, 285, 83-94.
The procedure adopted to test the antihypertensive activity of the compounds on the above mentioned model was the following: systolic blood pressure (SBP) and heart rate (HR) were measured by an indirect tailcuff method. The blood pressure lowering effect was measured in hypertensive ouabain-sensitive rats. The compound, suspended in Methocel 0.5% (w/v), was administered daily at the dose of 10 μg/kg/day by mouth for four weeks. SBP and HR were measured weekly 6 hours after the treatment. The comparison are ouabain sensitive rats (OS rats) and non hypertensive rats (control), both treated only with Methocel 0.5% (w/v). As shown in the following Table 4, treatment with a compound of the present invention lowers the blood pressure of OS rats (170 mm Hg) to almost the level of control rats (150 mm Hg).

[5] = read-out: Na+, K+-ATPase Inhibition IC50
[6] = dog kidney enzyme, hydrolysis of 32P-ATP in presence and absence of compound, read-out: Na+, K+-ATPase Inhibition IC50

Row | Structure (SMILES) | % of compound metabolized after 60 minutes [1] [%] | pIC50 ([2]; Na+, K+-ATPase Inhibition IC50) | Emax [3] [%] | ED80 [3] [µmol/kg] | ED (max) [3] [µmol/kg] | % decrease from Emax after 20 min from the end of the infusion [3] [%] | Dead/treated [3] | Maximum dose infused [3] | other results
1 | CC12CCC3C(CC(O)C4CC(=NOC5CCNC5)CCC43C)C1CCC2=O (single isomer, unassigned) [I-an, hydrochloride] | 21 | 6.24 |  |  |  |  |  |  | 
2 | CC12CCC3C(C(O)CC4CC(=NOC5CCNC5)CCC43C)C1CCC2=O (mixture of isomers) [I-cj, (E,Z) 3-[3′-(R)-Pyrrolidinyl]oxyimino-7α-hydroxyandrostane-17-one fumarate] | 20 | 6.66 |  |  |  |  |  |  | 
3 | CC12CCC3C(CC(=O)C4CC(=NOC5CCNC5)CCC43C)C1CCC2=O (mixture of isomers) [I-ae, (E,Z) 3-[3-(R)-Pyrrolidinyl]oxyiminoandrostane-6,17-dione hydrochloride] |  | 7.59 | 147 | 2.28 | 4.26 | 74 | 0/3 | 6.4 | 
4 | CC12CCC3C(C(=O)C(CO)C4CC(=NOC5CCNC5)CCC43C)C1CCC2=O (mixture of isomers) [I-cs, (E,Z) 3-[3′-(R)-Pyrrolidinyl]oxyimino-6α-hydroxymethylandrostane-7,17-dione fumarate] | 5 |  |  |  |  |  |  |  | pIC50 ([2]; Na+, K+-ATPase Inhibition IC50, dog kidney enzyme, hydrolysis of 32P-ATP in presence and absence of compound): 7.89
5 | C=C1CC2C/C(=N/O[C@@H]3CCNC3)CC[C@]2(C)[C@H]2CC[C@]3(C)C(=O)CC[C@H]3[C@H]12.Cl (stereo partly drawn) [I-cg, (E,Z) 3-[3′-(R)-Pyrrolidinyl]oxyimino-7-methyleneandrostane-17-one hydrochloride] | 28 |  |  |  |  |  |  |  | pIC50 [2, 5]: 6.62
6 | CC12CCC3C(CC(O)C4CC(=NOC5CCNC5)CCC43C)C1CCC2=O (single isomer, unassigned) [I-dp, hydrochloride] |  | 5.92 | 358 | 3.92 | 43.6 |  | 2/2 | 148 | Lethal dose/ED80 (safety ratio) [3]: 49
7 | CC1CC2CC(=NOC3CCNC3)CCC2(C)C2CCC3(C)C(=O)CCC3C12 (mixture of isomers) [I-cl, (E,Z) 3-[3′-(R)-Pyrrolidinyl]oxyimino-7β-methylandrostane-17-one hydrochloride] |  | 6.82 | 187 | 3.34 | 6.34 | 7 | 0/3 | 6.4 | 
8 | C#CC1CC2C3CCC(=O)C3(C)CCC2C2(C)CCC(=NOC3CCNC3)CC12 (mixture of isomers) [I-bb, (E,Z) 3-[3′-(R)-Pyrrolidinyl]oxyimino-6α-ethynylandrostane-17-one hydrochloride] |  | 6.96 | 147 | 3.7 | 6.39 | 29 | 0/3 | 6.5 | 
9 | CON=C1CC2C3CCC(=O)C3(C)CCC2C2(C)CCC(=NOC3CCNC3)CC12O (single isomer, unassigned) [I-bw] | 24 |  |  |  |  |  |  |  | pIC50 [2, 6]: 7.41
10 | C[C@]12CCC(=NOCCN)CC1C(=O)C[C@@H]1[C@@H]2CC[C@]2(C)C(=O)CC[C@@H]12.Cl (mixture of isomers) [compd 22b, (EZ) 3-(2-aminoethoxyimino)androstane-6,17-dione hydrochloride, reference compound] | 95 |  | 182 | 1.82 | 5.74 | 100 | 7/8 | 32.1 | metabolism in fresh rat hepatocytes within 60 minutes (in words) ([1]; 45 μM): almost completely metabolized; Lethal dose/ED80 (safety ratio) [3]: 22.6
11 | C[C@]12CC[C@H]3[C@@H](CC[C@@]4(O)CC(=NO[C@@H]5CCNC5)CC[C@]34C)[C@@H]1CCC2=O (mixture of isomers) [I-am, (E,Z) 3-(3-(R)-Pyrrolidinyl)oxyimino-5α-hydroxyandrostane-17-one hemifumarate] | 12 | 6.68 | 221 | 3.87 | 15.3 | 100 | 0/3 | 25.2 | 
12 | CC12CCC3C(CC(CCO)C4CC(=NOC5CCNC5)CCC43C)C1CCC2=O (mixture of isomers) [I-bc, (E,Z) 3-[3′-(R)-Pyrrolidinyl]oxyimino-6α-(2-hydroxyethyl)androstane-17-one hydrochloride] |  |  | 183 | 1.89 | 5.08 | 28 | 0/3 | 6.3 | pIC50 [2, 6]: 7.24
13 | COC(=O)C1CC2C3CCC(=O)C3(C)CCC2C2(C)CCC(=NOC3CCNC3)CC12 (mixture of isomers) [I-au, (Z,E) 3-(3-(R)-Pyrrolidinyloxyimino)-6α-methoxycarbonylandrostane-17-one hydrochloride] |  |  | 164 | 11 | 23.3 | 58 | 0/4 | 50.3 | pIC50 [2, 6]: 6.80
14 | CC12CCC3C(C(O)C(CO)C4CC(=NOC5CCNC5)CCC43C)C1CCC2=O (single isomer, unassigned) [I-dk, hydrochloride] | 5 | 8.24 |  |  |  |  |  |  | 
15 | CON=C1CC2C3CCC(=O)C3(C)CCC2C2(C)CCC(=NOC3CCNC3)CC12 (single isomer, unassigned) [I-be] | 42 | 6.59 |  |  |  |  |  |  | 
16 | C[C@]12CC[C@H]3[C@@H](C/C(=N\O)[C@@]4(O)CC(=NO[C@@H]5CCNC5)CC[C@]34C)[C@@H]1CCC2=O (mixture of isomers) [I-bp, (E,Z) 3-[3-(R)-Pyrrolidinyl]oxyimino-5α-hydroxy-6-(E)-hydroxyiminoandrostane-17-one hydrochloride] | 8 |  | 226 | 0.37 | 1.8 | 100 |  | 4.3 | 
17 | C=C1C[C@@H]2[C@H](CC[C@]3(C)C(=O)CC[C@@H]23)[C@@]2(C)CC[C@@H](SC3CCNC3)CC12.O=C(O)/C=C/C(=O)O (mixture of isomers) [I-db, 3α-[3-(RS)-Pyrrolidinylthio]-6-methyleneandrostane-17-one fumarate] | 25 |  |  |  |  |  |  |  | pIC50 [2, 5]: 4.70; HR beats/min. [4]: 387 beats/min.; HR % beats/min ([4]; change versus OS rats on vehicle): +6.6%; SBP mmHg ([4]; measured 6 hours after treatment, tail-cuff): 153.0 mmHg; SBP - % ([4]; versus OS rats on vehicle): 10.3%; SBP - mmHg (fall) ([4]; versus OS rats on vehicle): 17.0 mmHg
